Patent US10471082B2, “Flavivirus protease inhibitors” (priority 2012, dated 2019)

Assays:
DENV-2 protease = target: T1, DENV-2 protease (Dengue virus type 2, UniProt P14340); assay: In vitro protease assay, DENV-2 NS2B-NS3pro; format: biochemical, Dengue virus serotype 2; conditions: for inhibition at 10 µM: 10 μM inhibitor, read-out: % Inhib. DENV 2 Protease at 10 μM; for inhibition at 25 µM: 25 μM inhibitor, read-out: % Inhib. DENV 2 Protease at 25 μM; for IC50: substrate Bz-Nle-Lys-Arg-Arg-AMC, triplicate, read-out: IC50 DENV2
T1 construct: expression plasmids pQE30-NS2BH(QR)-NS3pro and WNV clone 107, respectively; made in house; host or cells: E. coli TOP10F' cells
T1 sequence (P14340 1476-1653): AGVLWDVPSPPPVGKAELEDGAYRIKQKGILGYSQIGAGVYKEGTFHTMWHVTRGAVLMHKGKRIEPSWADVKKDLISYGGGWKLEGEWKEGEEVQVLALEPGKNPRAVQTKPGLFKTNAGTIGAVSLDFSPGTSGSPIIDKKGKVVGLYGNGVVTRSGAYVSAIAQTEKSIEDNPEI
Procedure: (§1) DENV-2 and WNV proteases were expressed from 2 L cultures of TOP10F′ cells (Invitrogen; Carlsbad, Calif.) transformed with expression plasmids pQE30-NS2BH(QR)-NS3pro and WNV clone 107, respectively. Cultures were grown in LB medium supplemented with ampicillin (100 μg/mL) and 0.1% glucose at 37° C. until the OD600 reached 0.6-0.7. The medium was then replaced with fresh LB-ampicillin with 1 mM IPTG. Expression was done at 20° C. for 16 h. Cells were then pelleted and either frozen or used immediately for purification using a Talon metal affinity resin (Clontech; Mountain View, Calif.).
(§2) A reaction mixture was prepared containing 200 mM Tris pH 9.5, 30% glycerol, 0.1% CHAPS detergent (to prevent non-specific aggregation of compounds), 50 nM DENV2QRpro enzyme and 10 μM Bz-Nle-Lys-Arg-Arg-AMC in each 30 μL reaction in duplicate 384-well plates. Aprotinin (2 μM) was used as a positive control. Compounds which inhibited the cleavage of the substrate by at least 50% were considered as positive hits. From the list of positive compounds, the highest scoring hits were selected for further analysis. […] Out of the 29 compounds, only 22 dissolved in DMSO at 5 mM. The activities of the 22 compounds were tested against DENV-2 and WNV proteases at 10 and 25 μM of the inhibitor concentration. […] A control containing only 2% DMSO and the substrate was used to achieve the minimum value of relative fluorescence units (RFU) for background subtraction. Compounds that reduced the protease activity by ≥70% were selected for further analysis.
(§3) Compound I, Compound II, Compound III, Compound IV, Compound V, Compound VI, and Compound VII were analyzed by in vitro protease assays. The compounds were tested for DENV-2 and WNV protease inhibition activity. All assays were done in triplicate in black 96-well plates. Protease activity experiments were performed in vitro using purified viral protease NS2B-N53-pro from DENV-2 or WNV. The reaction mixture of 100 μL/well contained 200 mM Tris pH 9.5, 30% glycerol, 27 nM WNV, 2% DMSO and fluorogenic tetra-peptide substrate Bz-Nle-Lys-Arg-Arg-AMC at concentrations that varied (0.05, 0.1, 0.5, 1, 2, 5, 10, and 25 μM). The percent activities after 30 min versus inhibitor concentration were plotted in GraphPad Prism v5.04 using the four-parameter nonlinear regression (Hill slope method).
(§4) In all assays, the inhibitor-enzyme complex was allowed to form by pre-incubation for 15 min at room temperature (RT) before addition of the substrate. After 5 min incubation, reactions were monitored by the release of free AMC, every 1.5 min for 30 min. The fluorescence emission was recorded at 465 nm following excitation at 385 nm using the Spectra Max Gemini EM (Molecular Devices; Silicon Valley, Calif.). The relative fluorescence units (RFU) were converted to absolute AMC product concentrations using Excel, where the data were transformed using the slope from the linear regression of the AMC calibration curve generated from the fluorescence values versus micromolar (μM) concentrations of free AMC. RFUs, obtained in a standard assay in the absence of inhibitors, were taken as 100% protease activity (or 0% inhibition), the background value (no protease) as 0% activity (or 100% inhibition). Kinetic values were determined using Microsoft Excel and GraphPad Prism 5 (La Jolla, Calif.).

WNV protease = target: T2, WNV protease (West Nile virus, UniProt Q9Q6P4); assay: In vitro protease assay, WNV NS2B-NS3pro; format: biochemical; conditions: for inhibition at 10 µM: read-out: % Inhib. WNV Protease at 10 μM; for inhibition at 25 µM: read-out: % Inhib. WNV Protease at 25 μM
T2 construct: purified viral protease NS2B-N53-pro from DENV-2 or WNV; made in house; host or cells: E. coli TOP10F' cells
T2 sequence (Q9Q6P4 1506-1683): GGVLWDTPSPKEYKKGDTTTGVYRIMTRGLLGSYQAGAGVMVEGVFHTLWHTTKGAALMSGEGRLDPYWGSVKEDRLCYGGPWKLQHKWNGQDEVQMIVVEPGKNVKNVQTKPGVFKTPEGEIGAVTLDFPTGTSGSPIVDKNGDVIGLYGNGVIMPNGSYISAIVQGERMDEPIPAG
T2 sequence (Q9Q6P4 1375-1505): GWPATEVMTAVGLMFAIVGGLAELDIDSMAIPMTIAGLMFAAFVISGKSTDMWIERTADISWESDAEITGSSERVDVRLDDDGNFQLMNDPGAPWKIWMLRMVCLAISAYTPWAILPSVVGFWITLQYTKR
Procedure: as §1, §2, §3, §4

DENV-1 protease = DENV-1 protease (Dengue virus type 1, UniProt P17763); assay: DENV-1 protease inhibition; format: biochemical, Dengue virus serotype 1
DENV-1 protease, sequence (P17763 1394-1440): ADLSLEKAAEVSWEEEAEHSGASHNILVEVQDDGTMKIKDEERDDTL
DENV-1 protease, sequence (P17763 1476-1653): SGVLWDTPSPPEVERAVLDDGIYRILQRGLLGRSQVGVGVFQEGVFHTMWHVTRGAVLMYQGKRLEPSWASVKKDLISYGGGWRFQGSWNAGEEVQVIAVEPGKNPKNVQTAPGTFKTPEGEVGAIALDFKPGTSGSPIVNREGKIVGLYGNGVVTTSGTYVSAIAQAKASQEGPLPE

DENV-3 protease = DENV-3 protease (Dengue virus type 3, UniProt P27915); assay: DENV-3 protease inhibition; format: biochemical, Dengue virus serotype 3
DENV-3 protease, sequence (P27915 1474-1651): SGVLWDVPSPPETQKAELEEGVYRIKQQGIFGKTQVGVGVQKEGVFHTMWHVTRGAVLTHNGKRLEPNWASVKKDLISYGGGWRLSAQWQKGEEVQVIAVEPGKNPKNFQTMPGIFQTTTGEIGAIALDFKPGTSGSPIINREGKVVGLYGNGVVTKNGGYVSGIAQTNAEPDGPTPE
DENV-3 protease, sequence (P27915 1392-1438): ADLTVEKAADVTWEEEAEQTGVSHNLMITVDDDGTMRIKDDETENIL

DENV-4 protease = DENV-4 protease (Dengue virus type 4, UniProt P09866); assay: DENV-4 protease inhibition; format: biochemical, Dengue virus serotype 4
DENV-4 protease, sequence (P09866 1475-1652): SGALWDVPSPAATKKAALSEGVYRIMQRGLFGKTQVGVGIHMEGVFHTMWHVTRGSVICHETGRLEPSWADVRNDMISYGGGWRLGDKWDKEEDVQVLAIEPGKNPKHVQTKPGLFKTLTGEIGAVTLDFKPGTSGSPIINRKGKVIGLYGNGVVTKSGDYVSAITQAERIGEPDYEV
DENV-4 protease, sequence (P09866 1393-1439): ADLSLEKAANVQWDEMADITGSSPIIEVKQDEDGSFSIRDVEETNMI

[1] = test system: WNV replicon-expressing Vero cells; assay: WNV replicon assay (Renilla luciferase); format: cell-based; conditions: West Nile virus, 24 h
Description: (§5) The efficacy of the compounds was also examined in cell-based assays performed in mammalian cells. Mammalian cells are the host for replication of the virus; a compound added to the growth medium of the mammalian cell in which a replicon RNA or dengue virus is replicating, the compound of interest could permeate the cell and interfere with the replication process. If there is a quantitative read-out of replication efficiency, the potency of the inhibitor compound could be evaluated in a quantifiable manner. There are two types of quantifiable assays available both employing mammalian cells; the first is the Baby Hamster Kidney (BHK) or monkey kidney (Vero) cells harboring DENV-2 or WNV replicon RNA, respectively, in a continuously replicating state and these are “stable replicon-expressing” cells. […] The inhibition of infectivity of the virus by the compound is measured by the extent of reduction of the titer of virus determined by plaque assay.
(§6) Both drug efficacy and cytotoxicity were measured using the same experimental plate. […] Cells were then washed with PBS and the luminescence signal from Renilla luciferase activity was read using the Renilla luciferase assay kit (Promega Corp; Fitchburg, Wis.) using a luminometer (Berthold Technologies, Inc.; Oak Ridge, Tenn.). […] The EC50 and CC50 values of selected compounds were calculated similar to IC50s using GraphPad Prism v5. […]

[2] = Cell viability (CellTiter Glo) in Vero-WNV cells; format: cell-based; conditions: monkey, ATP production
Procedure: (§7) Both drug efficacy and cytotoxicity were measured using the same experimental plate. Prior to compound treatment, BHK21-DENV2 or Vero-WNV cells at […] were plated in 96-well plates with each well containing 10^4 cells. After 24 h incubation, the medium was replaced with 100 μL fresh medium containing different compound concentrations (0.5, 1, 2, 5, 10, and 25 μM) in triplicate wells. Cells were incubated again for 24 h. Cells were then washed with PBS and the luminescence signal from Renilla luciferase activity was read using the Renilla luciferase assay kit (Promega Corp; Fitchburg, Wis.) using a luminometer (Berthold Technologies, Inc.; Oak Ridge, Tenn.). Cell viability (CC50) was measured as amount of ATP production in viable (live) cells using a chemiluminescence detection method (CellTiter Glo kit from Promega Corp) using the Model LB960 luminometer (Berthold Technologies). The EC50 and CC50 values of selected compounds were calculated similar to IC50s using GraphPad Prism v5. Experiments were done in duplicates.

[3] = test system: DENV2 replicon-expressing BHK21 cells; assay: DENV2 replicon assay (Renilla luciferase); format: cell-based; conditions: Dengue virus, DENV2, BHK-21
Description: as §5, §6

[4] = Cell viability (CellTiter Glo) in BHK21-DENV2 cells; format: cell-based; conditions: hamster, ATP production
Procedure: as §7
Following a similar protocol, the EC50 and CC50 values of Compounds III and V for inhibition of DENV2 replicon-expressing BHK21 cells and cell viability of those cells treated with Compounds III and V were determined.

Dengue virus = assay: Plaque assay for anti-dengue viral activity; format: cell-based; conditions: for EC50: Dengue virus, read-out: EC50 in virus replication; for virus titer: BHK 21 cells, MOI 1, 48 h, no-treatment 2×10^5
Description: The efficacy of the compounds was also examined in cell-based assays performed in mammalian cells. Mammalian cells are the host for replication of the virus; a compound added to the growth medium of the mammalian cell in which a replicon RNA or dengue virus is replicating, the compound of interest could permeate the cell and interfere with the replication process. If there is a quantitative read-out of replication efficiency, the potency of the inhibitor compound could be evaluated in a quantifiable manner. There are two types of quantifiable assays available both employing mammalian cells; the first is the Baby Hamster Kidney (BHK) or monkey kidney (Vero) cells harboring DENV-2 or WNV replicon RNA, respectively, in a continuously replicating state and these are “stable replicon-expressing” cells. The second assay is infectivity assays in which mammalian cells are infected with DENV and the compound of interest is added at various concentrations and incubated. The inhibition of infectivity of the virus by the compound is measured by the extent of reduction of the titer of virus determined by plaque assay.
BHK 21 cells (1×10^5) were plated onto each well of 12 well-cell culture plate. […] One hour later, the Dengue virus was added (MOI:1). After an additional 48 hours, the supernatant was collected and tested by the plaque assay.
LLC-MK2 cells were plated at 2.5×10^5 cells per well in 6-well plates containing 2 ml culture medium and incubated overnight. Serially diluted supernatants from BHK21 cells treated with compounds at different concentrations as described above were incubated with cells in paired wells of six-well plates for 2 h. Cells were overlaid with 1× media containing 0.5% Sea-Kem GTG agarose (FMC Bioproducts; Philadelphia, Pa.) and were incubated for 7 days at 37° C. and visualized by staining with 0.01% neutral red solution overnight.

Structure (SMILES) | inhibition at 10 µM (DENV-2 protease) [%] | inhibition at 25 µM (DENV-2 protease) [%] | IC50 (DENV-2 protease) [µM] | IC50 (WNV protease) [µM] | inhibition at 10 µM (WNV protease) [%] | inhibition at 25 µM (WNV protease) [%] | EC50 (Dengue virus) [µM] | further results
CCOC(=O)c1oc2c(O)c(O)ccc2c(=O)c1-c1cnn(-c2ccccc2)c1 [Compound V] | 75 | 86 | 4.8 | 4.3 | 75 | 95 |  | IC50 (DENV-1 protease): 6.4 ± 1.2 µM; IC50 (DENV-3 protease): 5 ± 1.4 µM; IC50 (DENV-4 protease): 5.32 ± 0.6 µM; EC50 [1]: 9.7 µM; CC50 at 24 h [2]: 168 µM; EC50 [3]: 11.7 µM; CC50 at 24 h [4]: 202 µM
O=c1c(Oc2ccccc2)c(C(F)(F)F)oc2c(O)c(O)ccc12 [Compound IV] | 63 | 82 | 8.5 | 6.7 | 71 | 95 | < 20 | 
COCc1cc(C)nc(SCC(=O)c2ccc(O)c(O)c2)c1C#N [Compound I] | 51 | 89 | 10.5 | 9 | 54 | 95 |  | 
O=C(OC[C@H]1OC(OC(=O)c2cc(O)c(O)c(OC(=O)c3cc(O)c(O)c(O)c3)c2)C(OC(=O)c2cc(O)c(O)c(OC(=O)c3cc(O)c(O)c(O)c3)c2)[C@@H](OC(=O)c2cc(O)c(O)c(OC(=O)c3cc(O)c(O)c(O)c3)c2)C1OC(=O)c1cc(O)c(O)c(OC(=O)c2cc(O)c(O)c(O)c2)c1)c1cc(O)c(O)c(OC(=O)c2cc(O)c(O)c(O)c2)c1 (some centres unmarked) [Compound VII, Tannic acid, reference compound] | 99 | 101 | 0.768 | 0.312 | 98 | 96 | < 5 | 
Cc1ccc(C(=O)c2cc(O)c(O)c([N+](=O)[O-])c2)cc1 [Compound VI, Tolcapone, reference compound] | 90 | 92 | 0.758 | 0.68 | 99 | 67 | < 5 | fold reduction of virus titer (Dengue virus; 5 μM compound): greater than 100 fold
Cc1sc2nc(SCC(=O)c3ccc(O)c(O)c3)[nH]c(=O)c2c1C [Compound II] | 57 | 92 | 8.8 | 9.7 | 45 | 92 |  | inhibition of the virus titer (Dengue virus; 20 μM compound): did not show a significant inhibition
Cc1ccc(C2=NC(=O)/C(=C/c3cc(O)c(O)c(Br)c3)S2)cc1 [Compound III] | 96 | 94 | 3.4 | 1.3 | 98 | 98 | < 10 | IC50 (DENV-1 protease): 5.99 ± 1.4 µM; IC50 (DENV-3 protease): 4.8 ± 1.1 µM; IC50 (DENV-4 protease): 3.92 ± 0.05 µM; EC50 [1]: 3.7 µM; CC50 at 24 h [2]: 130 µM; EC50 [3]: 7.2 µM; CC50 at 24 h [4]: 407 µM; fold reduction of virus titer (Dengue virus; 10 μM compound): 3.3 fold; virus titer (Dengue virus; 10 μM compound): 6×10^4 PFU/ml; fold reduction of virus titer (Dengue virus; 15 μM compound): 5 fold; virus titer (Dengue virus; 15 μM compound): 4×10^4 PFU/ml; fold reduction of virus titer (Dengue virus; 20 μM compound): 100 fold; virus titer (Dengue virus; 20 μM compound): 2×10^3 PFU/ml
